Earlier results in patent US6384084B2, “Histochrome and its therapeutic use in ophthalmology” (Tikhookeansky Institut Bioorganicheskoi Khimii …, priority 1998, dated 2002).

Experiments:
[1] = rabbits, 0.5% solution, subconjunctival and parabulbar
[2] = patients, 0.5% solution

Row | Structure (SMILES) | Resorption of intraocular hemorrhages (injection of a 1% solution) | Adverse effect in the course of therapy (monitoring of blood coagulation required) | Effect on epithelization of the cornea and inflammatory processes in eye burns [1] | Pain at the time of administration [2]
1 | CCc1nc(C)ccc1O [Emoxipin] | facilitates the resorption of intraocular hemorrhages | liable to cause reccurrent hemorrhages | – | –
2 | CCc1c(O)c(O)c2c(c1O)C(=O)C(O)=C(O)C2=O [echinochrome, 2,3,5,6,8-pentahydroxy-7-ethyl-1,4-naphthoquinone] | – | – | able to facilitate epithelization of the cornea at early stages of the treatment of eye burns and to alleviate inflammatory processes in the eye | patients experienced acute pain at the time of administration
